How the values were obtained:
[1] = T1-relaxivity measurements at different magnetic field strengths in water and foetal bovine serum; assay type: physicochemical
Experimental: For the subsequent T1-relaxivity measurements which were carried out, ultra-pure water and foetal bovine serum (FBS, pH 7.7) were used as the solvent for the metallic complexes. The relaxivity measurements at different magnetic field strengths were carried out on the following instruments: 0.94 T with a NMR relaxometer (Bruker Minispec mq 40, Germany), 1.5 T with a SIEMENS MAGNETOM Sonata MRI, 3 T with a SIEMENS MAGNETOM Lumina MRI and 7 T with a Bruker Pharmascan Kleintier-MRI.

[2] = pH dependency of T1- and T2-relaxivity in water (0.94 T NMR relaxometer); assay type: physicochemical; settings: pH<6
Text: At pH<6, a maximum T1-relaxivity of 1.7 l·mmol^−1·s^−1 or T2-relaxivity of 1.9 l·mmol^−1·s^−1 was reached.

[3] = excretion route of the iron complex; settings: in vivo

Row | T1-relaxivity (r1) per metal ion ([1]; 0.94 T, 37° C., FBS (pH 7.7)) | T1-relaxivity (r1) per metal ion ([1]; 0.94 T, 37° C., water) | T1-relaxivity (r1) per metal ion ([1]; 1.5 T, 23° C., FBS (pH 7.7)) | T1-relaxivity (r1) per metal ion ([1]; 1.5 T, 23° C., water) | T1-relaxivity (r1) per metal ion ([1]; 3.0 T, 37° C., FBS (pH 7.7)) | T1-relaxivity (r1) per metal ion ([1]; 3.0 T, 37° C., water) | T1-relaxivity (r1) per metal ion ([1]; 7.0 T, 37° C., FBS (pH 7.7)) | T1-relaxivity (r1) per metal ion ([1]; 7.0 T, 37° C., water) | maximum T1-relaxivity [2] | maximum T2-relaxivity [2] | T1-relaxivity per molecule ([1]; 0.94 T, 37° C., FBS (pH 7.7)) | T1-relaxivity per molecule ([1]; 0.94 T, 37° C., water) | T1-relaxivity per molecule ([1]; 1.5 T, 23° C., FBS (pH 7.7)) | T1-relaxivity per molecule ([1]; 1.5 T, 23° C., water) | T1-relaxivity per molecule ([1]; 3.0 T, 37° C., FBS (pH 7.7)) | T1-relaxivity per molecule ([1]; 3.0 T, 37° C., water) | T1-relaxivity per molecule ([1]; 7.0 T, 37° C., FBS (pH 7.7)) | T1-relaxivity per molecule ([1]; 7.0 T, 37° C., water) | excretion route [3] | SMILES
1 | 2.01 L/mmol/s | 1.92 L/mmol/s | 2.74 L/mmol/s | 2.27 L/mmol/s | 3.06 L/mmol/s | 2.64 L/mmol/s | 2.61 L/mmol/s | 2.38 L/mmol/s | – | – | – | – | – | – | – | – | – | – | – | N[C@H]1CC[C@H](NC(=O)CN(CC(=O)O)[C@@H]2CCCC[C@H]2N(CC(=O)O)CC(=O)O)CC1 [(2-2)]
2 | – | – | – | – | – | – | – | – | 1.7 L/mmol/s | 1.9 L/mmol/s | – | – | – | – | – | – | – | – | – | NCCNC(=O)CN(CC(=O)O)[C@@H]1CCCC[C@H]1N(CC(=O)O)CC(=O)O [(2-1)]
3 | 2.18 L/mmol/s | 1.99 L/mmol/s | 3.26 L/mmol/s | 2.75 L/mmol/s | 3.39 L/mmol/s | 2.99 L/mmol/s | 3.23 L/mmol/s | 2.65 L/mmol/s | – | – | 4.36 L/mmol/s | 3.98 L/mmol/s | 6.52 L/mmol/s | 5.5 L/mmol/s | 6.78 L/mmol/s | 5.98 L/mmol/s | 6.46 L/mmol/s | 5.3 L/mmol/s | liver excretion | O=C(O)CN(CC(=O)O)[C@@H]1CCCC[C@H]1N(CC(=O)O)CC(=O)N[C@H]1CC[C@H](NC(=O)CN(CC(=O)O)[C@@H]2CCCC[C@H]2N(CC(=O)O)CC(=O)O)CC1 [(1-2)]
